Assay results reported in US10028949B2, “Parenteral formulations of lipophilic pharmaceutical agents and methods for preparing and using the same” (priority 2011, dated 2018).
≈ marks a conversion by molar mass, not a printed value. Where “and” joins values, the source holds several entries; their conditions need not be identical. Equal values may be shown once. Read-outs that look alike come from different tables or passages of the source. Each block holds one molecule with its values, some of them ahead of it.

Key:
[1] = system: Aspergillus fumigatus (ATCC strain 90906); assay: Mold susceptibility test (MIC, CLSI M38A); format: cell-based; conditions: Table 4, read-out at 48 hr, range tested 32 ug/ml to 0.03 ug/ml
Excerpt: To further determine the antifungal activity of the compounds in the new formulation systems the inventors investigated the efficacy of the various agents against additional strains of mucor and Aspergillus (The Rhizomucor was a clinical isolate from a patient isolate) and the Aspergillus fumigatus (ATCC strain 90906) used was as previously described. Again, the susceptibility tests were set-up using the standardized test method (CLSI M38A). The used drugs were provided in the described final use-formulation VE-acetone/PEG/D5W. All drugs were diluted in RPMI-Mops medium: YeastOne, Sensititer (Lot 151416SA, expiration date in 2011).
Briefly, susceptibility tests were set-up using a standardized methodology (CLSI M38A). Drugs were diluted into RPMI-Mops medium (Yeast One Broth (Sensititer, product Y3462, Trek Diagnostic Systems, Cleveland, Ohio) Sensititer Lot number 151416SA—expiration date 2011). Two different strains of […] were tested, the standardized evaluation/read out was performed at 24 hours after the start of each culture. The tests were repeated twice and all MIC values (minimum inhibitory concentration) determined as an average of the two experiments.

[2] = system: Mucorales (Rhizopus lab strain); assay: Mold susceptibility test (MIC); format: cell-based; conditions: Table 4, read-out at 48 hr, range tested 32 ug/ml to 0.03 ug/ml
[3] = Plasma clearance of Itraconazole and Posaconazole after IV injection in mice; format: in vivo, Swiss Webster mice
Description: To avoid analytical interference from endogenous plasma proteins in the chromatogram when assaying Itra and Posa in plasma samples, an extraction/purification step utilizing precipitation of protein material with acetonitrile was performed. Briefly, plasma proteins were precipitated by adding acetonitrile to a final volume ratio plasma:acetonitrile of 1:2. The mixture was vortexed for 30 seconds and centrifuged for 5 min. at 14,000 rpm in an Eppendorff microcentrifuge. The deproteinated supernatant, containing Itra, was injected into the HPLC to determine the drug concentration.

[4] = system: Aspergillus fumigatus [LAB-A from patient AF 040 511]; assay: Mold susceptibility test (MIC, CLSI M38A); format: cell-based; conditions: at 48 hr, in novel solvent
[5] = system: Rhizomucor sp. [Lab-Z is derived from patient 041511]; assay: Mold susceptibility test (MIC, CLSI M38A); format: cell-based; conditions: at 48 hr, in novel solvent

MIC [1]: 0.03 µg/mL (≈ 0.0428 µM) | MIC [2]: 0.12 µg/mL (≈ 0.171 µM)
SMILES: CC[C@@H]([C@H](C)O)n1ncn(-c2ccc(N3CCN(c4ccc(OC[C@@H]5CO[C@@](Cn6cncn6)(c6ccc(F)cc6F)C5)cc4)CC3)cc2)c1=O [Posa/D, posaconazole]

MIC [1]: 0.12 µg/mL (≈ 0.17 µM) | MIC [2]: 0.6 µg/mL (≈ 0.85 µM)
SMILES: CCC(C)n1ncn(-c2ccc(N3CCN(c4ccc(OCC5COC(Cn6cncn6)(c6ccc(Cl)cc6Cl)O5)cc4)CC3)cc2)c1=O (stereo not drawn) [Itra/D, itraconazole]

plasma concentration, individual ([3]; 5 mg/kg IV, mice, 10 min): 3860 ng/mL and 3590 ng/mL and 2130 ng/mL | plasma concentration, individual ([3]; 5 mg/kg IV, mice, 30 min): 1930 ng/mL | plasma concentration, individual ([3]; 5 mg/kg IV, mice, 120 min): 770 ng/mL | concentration at 10 min ([3]; Swiss Webster, mouse, plasma, intravenous, 5 mg/kg, 5 mg/kg IV, mice, 10 min, read-out: plasma concentration, individual): 3340 ng/mL | concentration at 10 min ([3]; Swiss Webster, mouse, plasma, intravenous, 5 mg/kg, 5 mg/kg IV, mice, 10 min, read-out: plasma concentration, mean): 3230 ng/mL | concentration at 30 min ([3]; Swiss Webster, mouse, plasma, intravenous, 5 mg/kg, 5 mg/kg IV, mice, 30 min, read-out: plasma concentration, individual): 1310 ng/mL | concentration at 30 min ([3]; Swiss Webster, mouse, plasma, intravenous, 5 mg/kg, 5 mg/kg IV, mice, 30 min, read-out: plasma concentration, mean): 1620 ng/mL | concentration at 60 min ([3]; Swiss Webster, mouse, plasma, intravenous, 5 mg/kg, 5 mg/kg IV, mice, read-out: plasma concentration, individual): 770 ng/mL | concentration at 60 min ([3]; Swiss Webster, mouse, plasma, intravenous, 5 mg/kg, 5 mg/kg IV, mice, read-out: plasma concentration, mean): 770 ng/mL | concentration at 120 min ([3]; Swiss Webster, mouse, plasma, intravenous, 5 mg/kg, 5 mg/kg IV, mice, 120 min, read-out: plasma concentration, individual): 640 ng/mL | concentration at 120 min ([3]; Swiss Webster, mouse, plasma, intravenous, 5 mg/kg, 5 mg/kg IV, mice, 120 min, read-out: plasma concentration, mean): 710 ng/mL
SMILES: CCC(C)n1ncn(-c2ccc(N3CCN(c4ccc(OCC5COC(Cn6cncn6)(c6ccc(Cl)cc6Cl)O5)cc4)CC3)cc2)c1=O (stereo not drawn) [Itraconazole, itraconazole]

MIC [4]: 0.04 µg/mL (≈ 0.0571 µM) | MIC [5]: 0.04 µg/mL (≈ 0.0571 µM) | plasma concentration ([3]; 5 mg/kg BW in mice, from ten minutes to at least 2 hours after drug injection): 3000 to 5000 ng/mL | plasma concentration, individual ([3]; 5 mg/kg IV, mice, 2.0 hours): 4850 ng/mL and 5030 ng/mL and 4210 ng/mL | plasma concentration, individual ([3]; 5 mg/kg IV, mice, 7.0 hours): 3860 ng/mL | plasma concentration, individual ([3]; 5 mg/kg IV, mice, 24 hours): 30 ng/mL and 560 ng/mL and 470 ng/mL | plasma concentration, individual ([3]; 5 mg/kg IV, mice, 30 hours): 140 ng/mL and 290 ng/mL and 40 ng/mL | concentration at 0.2 hours ([3]; Swiss Webster, mouse, plasma, intravenous, 5 mg/kg, 5 mg/kg IV, mice, 0.2 hours): 3680 ng/mL | concentration at 2 hours ([3]; Swiss Webster, mouse, plasma, intravenous, 5 mg/kg, 5 mg/kg IV, mice, 2.0 hours, read-out: plasma concentration, individual): 4990 ng/mL | concentration at 2 hours ([3]; Swiss Webster, mouse, plasma, intravenous, 5 mg/kg, 5 mg/kg IV, mice, 2.0 hours, read-out: plasma concentration, mean): 4770 ng/mL | concentration at 7 hours ([3]; Swiss Webster, mouse, plasma, intravenous, 5 mg/kg, 5 mg/kg IV, mice, 7.0 hours, read-out: plasma concentration, individual): 2610 ng/mL | concentration at 7 hours ([3]; Swiss Webster, mouse, plasma, intravenous, 5 mg/kg, 5 mg/kg IV, mice, 7.0 hours, read-out: plasma concentration, mean): 3230 ng/mL | concentration at 24 hours ([3]; Swiss Webster, mouse, plasma, intravenous, 5 mg/kg, 5 mg/kg IV, mice, 24 hours): 350 ng/mL | concentration at 30 hours ([3]; Swiss Webster, mouse, plasma, intravenous, 5 mg/kg, 5 mg/kg IV, mice, 30 hours): 160 ng/mL
SMILES: CC[C@@H]([C@H](C)O)n1ncn(-c2ccc(N3CCN(c4ccc(OC[C@@H]5CO[C@@](Cn6cncn6)(c6ccc(F)cc6F)C5)cc4)CC3)cc2)c1=O [Posaconazole, posaconazole]
plasma concentration, individual ([3]; 5 mg/kg IV, mice, 0.2 hours): 3430 ng/mL and 1880 ng/mL and 4590 ng/mL and 4820 ng/mL
